From patent publication US20250313563A1, “GLYCOGEN SYNTHASE KINASE 3 INHIBITORS AND USES THEREOF” (The Broad Institute, Inc., priority 2022, published 2025)
Where two headings read alike, the source gives them in different places.

Assays:
[1] = target: GSK3α (GST-full length GSK3α) (Homo sapiens (Human), UniProt P49840); experiment: GSK3α TR-FRET kinase assay; type: biochemical
In short: (§1)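 Compound was preincubated 30 min with 1 nM GST-GSK3 enzyme. Reaction ran 100 min at ambient temperature in Tris pH 7.5/MgCl2 with 200 nM biotinylated pS645-glycogen synthase 631-650 peptide and ATP (4 μM GSK3α, 2 μM GSK3b, or 1 mM). The EDTA-stopped reaction was read by TR-FRET (Tb-anti-pSer641/streptavidin-d2), and IC50s were fitted.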

[2] = target: GSK3b (GST-full length GSK3b) (Homo sapiens (Human), UniProt P49841); experiment: GSK3b TR-FRET kinase assay; type: biochemical
Sequence of GSK3b (GST-full length GSK3b) (P49841 whole entry): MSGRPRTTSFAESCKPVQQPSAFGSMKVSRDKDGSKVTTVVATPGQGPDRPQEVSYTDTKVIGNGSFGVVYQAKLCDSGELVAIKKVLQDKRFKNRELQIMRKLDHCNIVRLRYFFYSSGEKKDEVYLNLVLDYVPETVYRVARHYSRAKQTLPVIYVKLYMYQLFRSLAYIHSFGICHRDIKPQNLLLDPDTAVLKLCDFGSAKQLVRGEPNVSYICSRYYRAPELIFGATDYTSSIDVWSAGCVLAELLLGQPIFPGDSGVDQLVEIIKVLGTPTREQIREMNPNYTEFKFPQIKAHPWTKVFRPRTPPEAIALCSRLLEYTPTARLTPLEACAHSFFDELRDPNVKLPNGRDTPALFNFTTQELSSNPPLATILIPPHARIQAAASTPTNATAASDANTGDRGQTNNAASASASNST
In short: as §1

[3] = 1 nM GSK3α, 4 μM ATP, 30 minute preincubation, Table 16, read-out: GSK3-A TR-FRET BIOCHEMICAL (TR-FRET), IC50
[4] = 1 nM GSK3b, 2 μM ATP, 30 minute preincubation, Table 16, read-out: GSK3-B TR-FRET BIOCHEMICAL (TR-FRET), IC50
[5] = 1 nM GSK3α, 4 μM ATP, 30 minute preincubation, Table 16, read-out: GSK3-A TR-FRET BIOCHEMICAL (TR-FRET)
[6] = GSK3-A (TR-FRET 1 mM ATP), GMean, IC50, 1 mM ATP, geometric mean
[7] = 1 nM GSK3b, 2 μM ATP, 30 minute preincubation, Table 16, read-out: GSK3-B TR-FRET BIOCHEMICAL (TR-FRET)
[8] = read-out: GSK3-B (TR-FRET 1 mM ATP), GMean, IC50, 1 mM ATP, geometric mean
[9] = 1 nM GSK3α, 4 μM ATP, 30 minute preincubation, read-out: GSK3-A TR-FRET BIOCHEMICAL (TR-FRET), IC50
[10] = 1 nM GSK3b, 2 μM ATP, 30 minute preincubation, read-out: GSK3-B TR-FRET BIOCHEMICAL (TR-FRET), IC50
[11] = GSK3-B (TR-FRET 1 mM ATP), GMean, IC50, 1 mM ATP, geometric mean
[12] = 1 nM GSK3α, 4 μM ATP, 30 minute preincubation, geometric mean, read-out: GSK3-A TR-FRET BIOCHEMICAL (TR-FRET), GMean, IC50
[13] = 1 nM GSK3b, 2 μM ATP, 30 minute preincubation, geometric mean, read-out: GSK3-B TR-FRET BIOCHEMICAL (TR-FRET), GMean, IC50
[14] = read-out: GSK3-A (TR-FRET 1 mM ATP), GMean, IC50, 1 mM ATP, geometric mean

Sequence of GSK3α (GST-full length GSK3α) (P49840 whole entry): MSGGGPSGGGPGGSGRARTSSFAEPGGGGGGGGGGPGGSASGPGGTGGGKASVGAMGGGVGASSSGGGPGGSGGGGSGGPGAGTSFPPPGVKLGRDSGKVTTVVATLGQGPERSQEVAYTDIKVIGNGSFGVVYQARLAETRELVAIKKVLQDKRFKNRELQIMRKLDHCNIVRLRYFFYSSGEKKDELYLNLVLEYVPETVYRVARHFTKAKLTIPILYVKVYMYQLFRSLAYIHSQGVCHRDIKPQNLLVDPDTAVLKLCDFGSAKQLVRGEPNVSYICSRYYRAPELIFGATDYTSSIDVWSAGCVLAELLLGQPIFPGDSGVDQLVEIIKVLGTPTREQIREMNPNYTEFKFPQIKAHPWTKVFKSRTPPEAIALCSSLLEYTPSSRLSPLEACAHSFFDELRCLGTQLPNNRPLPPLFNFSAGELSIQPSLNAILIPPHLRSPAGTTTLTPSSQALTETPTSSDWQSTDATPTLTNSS

| IC50 [1, 3] | IC50 [2, 4] | IC50 [1, 5] | IC50 [2, 7] | further results | SMILES |
| --- | --- | --- | --- | --- | --- |
| 1000 to 5000 nM | 1000 to 5000 nM |  |  |  | CC1(C)CC(=O)C2=C(C1)Nc1n[nH]cc1C21CCCN(C(=O)c2ccccc2)CC1 (stereo not drawn) [Compound 889577] |
|  |  | ≤ 100 nM | ≤ 100 nM | IC50 [1, 6]: 100 to 1000 nM; IC50 [2, 8]: 100 to 1000 nM | CC1(C)CC(=O)C2=C(C1)Nc1n[nH]cc1[C@]21CCN(S(=O)(=O)CC2CC2)C1 [Compound 943481] |
|  |  |  |  | IC50 [1, 9]: ≤ 100 nM; IC50 [1, 6]: 100 to 1000 nM; IC50 [2, 10]: ≤ 100 nM; IC50 [2, 11]: > 5000 nM | CCC1(c2cccc(C(F)(F)F)c2)C2=C(CC(C)(C)NC2=O)Nc2n[nH]cc21 (stereo not drawn) [Compound 913006, 4-ethyl-7,7-dimethyl-4-(3-(trifluoromethyl)phenyl)-2,4,6,7,8,9-hexahydro-5H-pyrazolo[3,4-b][1,6]naphthyridin-5-one] |
|  |  |  |  | IC50 [1, 12]: ≤ 100 nM; IC50 [2, 13]: 100 to 1000 nM | CC[C@]1(c2cccc(-c3cnn(CCOC)c3)c2)C2=C(CC(C)(C)NC2=O)Nc2n[nH]cc21 [Compound 949105] |
|  |  |  |  | IC50 [1, 9]: ≤ 100 nM; IC50 [2, 10]: ≤ 100 nM | CCC1(c2cccc(-c3cn(C)nc3C)c2)C2=C(CC(C)(C)NC2=O)Nc2n[nH]cc21 (stereo not drawn) [Compound 944030] |
| 1000 to 5000 nM | > 5000 nM |  |  |  | CC[C@@]1(c2cccc(-c3cc(C)nnc3C)c2)C2=C(CC(C)(C)NC2=O)Nc2n[nH]cc21 [Compound 949334] |
|  |  |  |  | IC50 [1, 12]: > 1670 nM; IC50 [2, 13]: > 5000 nM | CCC1(c2cccc(N3CCN(C)CC3)c2)C2=C(CC(C)(C)CC2=O)Nc2n[nH]cc21 (stereo not drawn) [Compound 810379] |
| ≤ 100 nM | 100 to 1000 nM |  |  |  | C[C@@H]1C[C@H](C)C(=O)C2=C1Nc1n[nH]cc1C21CCOCC1 [Compound 893316] |
|  |  | ≤ 100 nM | ≤ 100 nM | IC50 [1, 14]: ≤ 100 nM; IC50 [2, 8]: ≤ 100 nM | CCC1(c2cccc(-c3ccnc(C)c3C)c2)C2=C(CC(C)(C)CC2=O)Nc2n[nH]c(C(F)(F)F)c21 (stereo not drawn) [Compound 947329] |
| 100 to 1000 nM | 100 to 1000 nM |  |  |  | CC1CC(=O)C2=C(C1)Nc1n[nH]cc1C21CCOCC1 (stereo not drawn) [Compound 884112] |
|  |  | ≤ 100 nM | ≤ 100 nM |  | COc1cncc(S(=O)(=O)N2CCC3(CC2)C2=C(CC(C)(C)CC2=O)Nc2n[nH]cc23)c1 [Compound 947465] |
|  |  | 100 to 1000 nM | > 5000 nM |  | CCC1(c2cccc(-c3ccnn3CCC(C)C)c2)C2=C(CC(C)(C)CC2=O)Nc2n[nH]cc21 (stereo not drawn) [Compound 946096] |
|  |  | > 5000 nM | > 5000 nM |  | CC[C@]1(c2cccc(C(F)(F)F)c2)C2=C(C[C@@]3(CCN(C)C3=O)CC2=O)Nc2n[nH]cc21 [Compound 950325] |
|  |  | ≤ 100 nM | ≤ 100 nM | IC50 [1, 6]: 100 to 1000 nM; IC50 [2, 11]: 1000 to 5000 nM | COc1cccc(S(=O)(=O)N2CCC3(CC2)C2=C(CC(C)(C)CC2=O)Nc2n[nH]cc23)c1 [Compound 901468] |
| ≤ 100 nM | ≤ 100 nM |  |  |  | CCC1(c2cccc(-c3ccnc(C)c3C)c2)C2=C(CC(C)(C)CC2=O)Nc2n[nH]cc21 (stereo not drawn) [Compound 913347] |
|  |  |  |  | IC50 [1, 12]: > 5000 nM; IC50 [2, 13]: > 5000 nM | CC[C@@]1(c2cccc(-c3cc(OC)nc4ccccc34)c2)C2=C(CC(C)(C)NC2=O)Nc2n[nH]cc21 [Compound 948647] |
| ≤ 100 nM | 100 to 1000 nM |  |  |  | CCC1(c2cccc(C(F)(F)F)c2)C2=C(CCN(c3cnn(C)c3)C2=O)Nc2n[nH]cc21 (stereo not drawn) [Compound 949270] |
| ≤ 100 nM | ≤ 100 nM |  |  |  | CCN(C(C)=O)c1cccc(C2(CC)C3=C(CC(C)(C)CC3=O)Nc3n[nH]cc32)c1 (stereo not drawn) [Compound 884109] |
|  |  | 100 to 1000 nM | 100 to 1000 nM |  | CC1(C)CC(=O)C2=C(C1)Nc1n[nH]cc1C21CCOCC1 [Compound 826648, 7′,7′-dimethyl-2,2′,3,5,6,7′,8′,9′-octahydrospiro[pyran-4,4′-pyrazolo[3,4-b]quinolin]-5′ (6′H)-one] |
| 1000 to 5000 nM | > 5000 nM |  |  |  | CC1(C)CC(=O)C2=C(C1)Nc1n[nH]cc1[C@@]21CCCc2ccccc21 [Compound 930565] |

| IC50 [1, 3] | IC50 [2, 4] | IC50 [1, 5] | IC50 [2, 7] | further results | SMILES |
| --- | --- | --- | --- | --- | --- |
|  |  |  |  | IC50 [1, 12]: 100 to 1000 nM; IC50 [2, 13]: 1000 to 5000 nM | CC[C@@]1(c2ccc(C)cc2)C2=C(CC(C)(C)CC2=O)Nc2n[nH]cc21 [Compound 789457] |
|  |  |  |  | IC50 [1, 12]: 100 to 1000 nM; IC50 [2, 13]: 1000 to 5000 nM | CCC1(c2cccc(N3CCCCC3)c2)C2=C(CC(C)(C)CC2=O)Nc2n[nH]c(C(F)(F)F)c21 (stereo not drawn) [Compound 816799] |
|  |  | ≤ 100 nM | ≤ 100 nM | IC50 [1, 6]: 100 to 1000 nM; IC50 [2, 11]: 1000 to 5000 nM | CC1(C)CC(=O)C2=C(C1)Nc1n[nH]cc1C21CCC(C(F)(F)F)CC1 (stereo not drawn) [Compound 865193] |
|  |  | ≤ 100 nM | ≤ 100 nM |  | Cc1cc(S(=O)(=O)N2CCC3(CC2)C2=C(CC(C)(C)CC2=O)Nc2n[nH]cc23)ccn1 [Compound 947481] |
|  |  |  |  | IC50 [1, 12]: 1000 to 5000 nM; IC50 [2, 13]: > 5000 nM | CC[C@@]1(c2ccccc2)C2=C(Nc3n[nH]cc31)[C@H](C)C[C@@H](C)C2=O [Compound 865199] |
| 1000 to 5000 nM | > 5000 nM |  |  |  | CC[C@@]1(c2cccc(-c3ccncc3C(F)(F)F)c2)C2=C(CC(C)(C)NC2=O)Nc2n[nH]cc21 [Compound 949516] |
|  |  | ≤ 100 nM | ≤ 100 nM |  | CC1(C)CC(=O)C2=C(C1)Nc1n[nH]cc1C21CCN(S(=O)(=O)c2cnc3n2CCCC3)CC1 [Compound 947480] |
|  |  |  |  | IC50 [1, 12]: ≤ 100 nM; IC50 [2, 13]: 100 to 1000 nM | CCC1(c2cccc(-c3ccnc(C)c3)c2)C2=C(CC(C)(C)CC2=O)Nc2n[nH]cc21 (stereo not drawn) [Compound 840857] |
|  |  | ≤ 100 nM | 100 to 1000 nM |  | CC1(C)CC(=O)C2=C(C1)Nc1n[nH]cc1[C@]21CCCN(S(=O)(=O)C2CC2)CC1 [Compound 932659] |
|  |  |  |  | IC50 [1, 12]: ≤ 100 nM; IC50 [1, 14]: ≤ 100 nM; IC50 [2, 13]: ≤ 100 nM; IC50 [2, 8]: ≤ 100 nM | CCC1(c2cccc(-c3ccnc(C)c3C)c2)C2=C(CC(C)(C)NC2=O)Nc2n[nH]c(C(F)(F)F)c21 (stereo not drawn) [Compound 948185] |
| ≤ 100 nM | 100 to 1000 nM |  |  |  | CC[C@@]1(c2cccc(C(F)(F)F)c2)C2=C(CCC2=O)Nc2n[nH]cc21 [Compound 951565] |
|  |  | ≤ 100 nM | ≤ 100 nM |  | COCc1cccc(S(=O)(=O)N2CCC3(CC2)C2=C(CC(C)(C)CC2=O)Nc2n[nH]cc23)c1 [Compound 947605] |
| ≤ 100 nM | 100 to 1000 nM |  |  |  | CCC1(c2cccc(-c3cc(C)nn3C)c2)C2=C(CC(C)(C)CC2=O)Nc2n[nH]cc21 (stereo not drawn) [Compound 929402] |
|  |  |  |  | IC50 [1, 9]: ≤ 100 nM; IC50 [2, 10]: ≤ 100 nM | CC[C@]1(c2cccc(S(=O)(=O)C3CC3)c2)C2=C(CC(C)(C)NC2=O)Nc2n[nH]cc21 [Compound 945999] |
| 1000 to 5000 nM | > 5000 nM |  |  |  | CC[C@]1(c2cccc(C3CCCC3)c2)C2=C(CC(C)(C)CC2=O)Nc2n[nH]cc21 [Compound 949399] |
|  |  | ≤ 100 nM | ≤ 100 nM |  | CC(C)n1ccc(S(=O)(=O)N2CCC3(CC2)C2=C(CC(C)(C)CC2=O)Nc2n[nH]cc23)n1 [Compound 947258] |
|  |  |  |  | IC50 [1, 12]: ≤ 100 nM; IC50 [2, 13]: 100 to 1000 nM | CCC1(c2cccc(-c3ccnc4c3CCC4)c2)C2=C(CC(C)(C)NC2=O)Nc2n[nH]cc21 (stereo not drawn) [Compound 947676] |
|  |  |  |  | IC50 [1, 14]: > 5000 nM; IC50 [2, 8]: 100 to 1000 nM | C[S+]([O-])c1cccc(C2(C)C3=C(CC(C)(C)CC3=O)Nc3n[nH]c(CC(C)(C)C)c32)c1 (stereo not drawn) [Compound 126191] |
|  |  | 100 to 1000 nM | 1000 to 5000 nM |  | CCC1(c2cccc(C(C)c3ncccn3)c2)C2=C(CC(C)(C)CC2=O)Nc2n[nH]cc21 (stereo not drawn) [Compound 948061] |
